# Biological target: Syk (Homo sapiens, UniProt P43405)
# Experiment: High Throughput Syk Biochemical Assay (KinEASE TR-FRET)
# Settings: TABLE D, 20 μM ATP, 1 μM biotinylated peptide, 0.015 nM Syk, 30 min at room temperature, read-out: IC50
# Outline: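 Two-step endpoint TR-FRET (KinEASE) measured Syk phosphorylation of an XL665-labelled peptide, detected with europium anti-phosphotyrosine antibody. Compounds were serially diluted in DMSO.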
row,IC50,SMILES
1,0.894 nM,C[C@@H](Oc1cc(-c2cnn(C(C)(C)C)c2)cc2ncsc12)[C@H]1CNC(=O)C1 (stereo in doubt) [(R)-4-((R)-1-((5-(1-(tert-butyl)-1H-pyrazol-4-yl)benzo[d]thiazol-7-yl)oxy)ethyl)pyrrolidin-2-one]
2,38 nM,"COc1ccc(-c2cc3ncn(C(F)F)c3c(O[C@H](C)[C@H]3CNC(=O)C34CC4)n2)cc1OC [(R)-7-((R)-1-((3-(difluoromethyl)-6-(3,4-dimethoxyphenyl)-3H-imidazo[4,5-c]pyridin-4-yl)oxy)ethyl)-5-azaspiro[2.4]heptan-4-one]"
3,1.24 nM,"C[C@@H](Oc1cc(-c2cnn(CC(F)F)c2)cc2ncsc12)[C@H]1CNC(=O)C1 (stereo in doubt) [(R)-4-((R)-1-((5-(1-(2,2-difluoroethyl)-1H-pyrazol-4-yl)benzo[d]thiazol-7-yl)oxy)ethyl)pyrrolidin-2-one]"
4,186 nM,"COC[C@@H](Oc1nc(-c2cnn(C(C)(C)C)c2)cc2ncn(C)c12)[C@H]1CNC(=O)C1 [(R)-4-((S)-1-(6-(1-tert-butyl-1H-pyrazol-4-yl)-3-methyl-3H-imidazo[4,5-c]pyridin-4-yloxy)-2-methoxyethyl)pyrrolidin-2-one]"
5,5.35 nM,C[C@@H](Oc1cc(-c2cnn(C(C)(C)C)c2)cc2ncn(C)c12)[C@H]1CNC(=O)C1 [(R)-4-((R)-1-((5-(1-(tert-butyl)-1H-pyrazol-4-yl)-1-methyl-1H-benzo[d]imidazol-7-yl)oxy)ethyl)pyrrolidin-2-one]
6,10.2 nM,"C[C@@H](Oc1cc(-c2cnn(CC(F)F)c2)cn2nccc12)[C@H]1CNC(=O)C1 [(R)-4-((R)-1-((6-(1-(2,2-difluoroethyl)-1H-pyrazol-4-yl)pyrazolo[1,5-a]pyridin-4-yl)oxy)ethyl)pyrrolidin-2-one]"
7,0.681 nM,C[C@@H](Oc1cc(-c2ccc(N3CCN(C4COC4)CC3)cc2)cc2ncsc12)[C@H]1CNC(=O)C1 (stereo in doubt) [(R)-4-((R)-1-((5-(4-(4-(oxetan-3-yl)piperazin-1-yl)phenyl)benzo[d]thiazol-7-yl)oxy)ethyl)pyrrolidin-2-one]
8,7.85 nM,"C[C@@H](Oc1cc(-c2ccc(N3CCOCC3)cc2)cn2nccc12)[C@H]1CNC(=O)C1 [(R)-4-((R)-1-((6-(4-morpholinophenyl)pyrazolo[1,5-a]pyridin-4-yl)oxy)ethyl)pyrrolidin-2-one]"
9,0.271 nM,"C[C@@H](Oc1cc(-c2cnn(C(C)(C)C)c2)cn2ncc(Cl)c12)[C@H]1CNC(=O)C1 [(R)-4-((R)-1-((6-(1-(tert-butyl)-1H-pyrazol-4-yl)-3-chloropyrazolo[1,5-a]pyridin-4-yl)oxy)ethyl)pyrrolidin-2-one]"
10,0.697 nM,CC(C)n1cc(-c2cc(O[C@H](C)[C@H]3CNC(=O)C3)c3scnc3c2)cn1 (stereo in doubt) [(R)-4-((R)-1-((5-(1-isopropyl-1H-pyrazol-4-yl)benzo[d]thiazol-7-yl)oxy)ethyl)pyrrolidin-2-one]

# Continued, compound first:
row,SMILES,IC50
1,"C[C@@H](Oc1nc(-c2cnn(CC(F)(F)F)c2)cc2ncn(C)c12)[C@H]1CNC(=O)C1 [(R)-4-((R)-1-(3-methyl-6-(1-(2,2,2-trifluoroethyl)-1H-pyrazol-4-yl)-3H-imidazo[4,5-c]pyridin-4-yloxy)ethyl)pyrrolidin-2-one]",20.8 nM
2,C=CC[C@@H](Oc1nc(-c2cnn(C(C)(C)C)c2)cc2ncn(C)c12)[C@H]1CNC(=O)C1,18.9 nM
3,"C[C@@H](Oc1nc(-c2ccc3c(c2)NCCO3)cc2ncn(C)c12)[C@H]1CNC(=O)C1 [(R)-4-((R)-1-(6-(3,4-dihydro-2H-benzo[b][1,4]oxazin-6-yl)-3-methyl-3H-imidazo[4,5-c]pyridin-4-yloxy)ethyl)pyrrolidin-2-one]",4.03 nM
4,"C[C@@H](Oc1nc(-c2ccc3c(c2)OC(F)(F)O3)cc2ncn(C)c12)[C@H]1CNC(=O)C1 [(R)-4-((R)-1-(6-(2,2-difluorobenzo[d][1,3]dioxol-5-yl)-3-methyl-3H-imidazo[4,5-c]pyridin-4-yloxy)ethyl)pyrrolidin-2-one]",148 nM
5,"C[C@@H](Oc1nc(-c2cnc(C(C)(C)C)s2)cc2ncn(C)c12)[C@H]1CNC(=O)C1 [(R)-4-((R)-1-(6-(2-tert-butylthiazol-5-yl)-3-methyl-3H-imidazo[4,5-c]pyridin-4-yloxy)ethyl)pyrrolidin-2-one]",9.73 nM
6,"COc1cc(-c2cc3ncn(C)c3c(O[C@H](C)[C@H]3CNC(=O)C3)n2)ccc1F [(R)-4-((R)-1-(6-(4-fluoro-3-methoxyphenyl)-3-methyl-3H-imidazo[4,5-c]pyridin-4-yloxy)ethyl)pyrrolidin-2-one]",39.5 nM
7,"C[C@@H](Oc1nc(-c2cnn(CC(F)F)c2)cc2ncn(C)c12)[C@H]1CNC(=O)C1 [(R)-4-((R)-1-(6-(1-(2,2-difluoroethyl)-1H-pyrazol-4-yl)-3-methyl-3H-imidazo[4,5-c]pyridin-4-yloxy)ethyl)pyrrolidin-2-one]",17.7 nM
8,"C[C@@H](Oc1nc(-c2ccc(C#N)cc2)cc2ncn(C)c12)[C@H]1CNC(=O)C1 [4-(3-methyl-4-((R)-1-((R)-5-oxopyrrolidin-3-yl)ethoxy)-3H-imidazo[4,5-c]pyridin-6-yl)benzonitrile]",28.4 nM
9,CC[C@@H](Oc1nc(-c2ccc(OC)c(OC)c2)cc2ncn(C)c12)[C@H]1CNC(=O)C1,7.63 nM
10,"C[C@@H](Oc1nc(-c2cnn(C3CC3)c2)cc2ncn(C)c12)[C@H]1CNC(=O)C1 [(R)-4-((R)-1-(6-(1-cyclopropyl-1H-pyrazol-4-yl)-3-methyl-3H-imidazo[4,5-c]pyridin-4-yloxy)ethyl)pyrrolidin-2-one]",14 nM
11,"C[C@@H](Oc1nc(C2=CCCCC2)cc2ncn(C)c12)[C@H]1CNC(=O)C1 [(R)-4-((R)-1-(6-cyclohexenyl-3-methyl-3H-imidazo[4,5-c]pyridin-4-yloxy)ethyl)pyrrolidin-2-one]",124 nM

# Same assay, conditions: table 'ALL NEW COMPOUNDS IN 2014', 20 μM ATP, 1 μM biotinylated peptide, 0.015 nM Syk, 30 min at room temperature, read-out: Syk IC50
row,IC50,SMILES
1,2.46 nM,"CCOc1ccc(-c2cc3ncn(C4CC4)c3c(O[C@H](C)[C@H]3CNC(=O)C3)n2)cc1OC [(R)-4-((R)-1-((3-cyclopropyl-6-(4-ethoxy-3-methoxyphenyl)-3H-imidazo[4,5-c]pyridin-4-yl)oxy)ethyl)pyrrolidin-2-one]"
2,5.69 nM,"C[C@@H](Oc1nc(-c2ccc(N3CC(N4CCOCC4)C3)cc2)cc2ncn(C3CC3)c12)[C@H]1CNC(=O)C1 [(R)-4-((R)-1-((3-cyclopropyl-6-(4-(3-morpholinoazetidin-1-yl)phenyl)-3H-imidazo[4,5-c]pyridin-4-yl)oxy)ethyl)pyrrolidin-2-one]"

# The next lines start with the compound.
row,SMILES,IC50
1,"C[C@@H](Oc1nc(-c2ccc(C3CCN(C4COC4)CC3)cc2)cc2ncn(C3CC3)c12)[C@H]1CNC(=O)C1 [(R)-4-((R)-1-((3-cyclopropyl-6-(4-(1-(oxetan-3-yl)piperidin-4-yl)phenyl)-3H-imidazo[4,5-c]pyridin-4-yl)oxy)ethyl)pyrrolidin-2-one]",2.31 nM
2,"C[C@@H](Oc1nc(-c2ccc(N3CC4CC(C3)N4C3COC3)cc2)cc2ncn(C3CC3)c12)[C@H]1CNC(=O)C1 [(4R)-4-((1R)-1-((3-cyclopropyl-6-(4-(6-(oxetan-3-yl)-3,6-diazabicyclo[3.1.1]heptan-3-yl)phenyl)-3H-imidazo[4,5-c]pyridin-4-yl)oxy)ethyl)pyrrolidin-2-one]",2.69 nM
3,"Cc1nnc(-c2cc(O[C@H](C)[C@H]3CNC(=O)C3)c3c(c2)ncn3C2CC2)s1 [(R)-4-((R)-1-((1-cyclopropyl-5-(5-methyl-1,3,4-thiadiazol-2-yl)-1H-benzo[d]imidazol-7-yl)oxy)ethyl)pyrrolidin-2-one]",5.45 nM
4,C[C@@H](Oc1cc(-c2ccn(C)n2)cc2ncn(C3CC3)c12)[C@H]1CNC(=O)C1 [(R)-4-((R)-1-((1-cyclopropyl-5-(1-methyl-1H-pyrazol-3-yl)-1H-benzo[d]imidazol-7-yl)oxy)ethyl)pyrrolidin-2-one],10.6 nM
5,"C[C@@H](Oc1nc(-c2ccc3c(c2)OCCO3)cc2ncn(C3CC3)c12)[C@H]1CNC(=O)C1 [(R)-4-((R)-1-((3-cyclopropyl-6-(2,3-dihydrobenzo[b][1,4]dioxin-6-yl)-3H-imidazo[4,5-c]pyridin-4-yl)oxy)ethyl)pyrrolidin-2-one]",5.52 nM
6,"Cc1cc(-c2cc3ncn(C4CC4)c3c(O[C@H](C)[C@H]3CNC(=O)C3)n2)ccc1N1CCN(C2COC2)CC1 [(R)-4-((R)-1-((3-cyclopropyl-6-(3-methyl-4-(4-(oxetan-3-yl)piperazin-1-yl)phenyl)-3H-imidazo[4,5-c]pyridin-4-yl)oxy)ethyl)pyrrolidin-2-one]",1.44 nM
7,COc1cc(-c2cc(O[C@H](C)[C@H]3CNC(=O)C3)c3c(c2)ncn3C2CC2)ccc1OC(F)F [(R)-4-((R)-1-((1-cyclopropyl-5-(4-(difluoromethoxy)-3-methoxyphenyl)-1H-benzo[d]imidazol-7-yl)oxy)ethyl)pyrrolidin-2-one],23.1 nM
8,C[C@@H](Oc1cc(-c2ccccn2)cc2ncn(C3CC3)c12)[C@H]1CNC(=O)C1 [(R)-4-((R)-1-((1-cyclopropyl-5-(pyridin-2-yl)-1H-benzo[d]imidazol-7-yl)oxy)ethyl)pyrrolidin-2-one],10.6 nM
9,"C[C@@H](Oc1nc(-c2cnc3c(c2)N(C)C(=O)C3(C)C)cc2ncn(C3CC3)c12)[C@H]1CNC(=O)C1 [6-(3-cyclopropyl-4-((R)-1-((R)-5-oxopyrrolidin-3-yl)ethoxy)-3H-imidazo[4,5-c]pyridin-6-yl)-1,3,3-trimethyl-1H-pyrrolo[3,2-b]pyridin-2(3H)-one]",8.85 nM
10,C[C@@H](Oc1cc(-c2ccc(N3CCN(C4COC4)CC3)cn2)cc2ncn(C3CC3)c12)[C@H]1CNC(=O)C1 [(R)-4-((R)-1-((1-cyclopropyl-5-(5-(4-(oxetan-3-yl)piperazin-1-yl)pyridin-2-yl)-1H-benzo[d]imidazol-7-yl)oxy)ethyl)pyrrolidin-2-one],4.72 nM
11,Cc1cnc(-c2cc(O[C@H](C)[C@H]3CNC(=O)C3)c3c(c2)ncn3C2CC2)s1 [(R)-4-((R)-1-((1-cyclopropyl-5-(5-methylthiazol-2-yl)-1H-benzo[d]imidazol-7-yl)oxy)ethyl)pyrrolidin-2-one],1.73 nM
